These results are taken from article PMC12595434, “Development of retinoid nuclear receptor pathway antagonists through targeting aldehyde dehydrogenase 1A3” (iScience, 2025).

Data set [1] addresses T1, hERG (Homo sapiens, UniProt Q12809). The data set is described as follows: hERG dofetilide binding assay.
Data set [2] has as its target CYP3A4 (Homo sapiens, UniProt P08684). The experiment in a line: CYP inhibition. Format: in vitro ADME.
The target in data set [3] is CYP2D6 (Homo sapiens, UniProt P10635). The experiment in a line: CYP inhibition. Format: in vitro ADME.
In data set [4] the target is T2, human ALDH1A1 (Homo sapiens, UniProt P00352).
T2 construct: made in house; host or cells: BL21-DE3 E. coli
T2 sequence (P00352 1-501): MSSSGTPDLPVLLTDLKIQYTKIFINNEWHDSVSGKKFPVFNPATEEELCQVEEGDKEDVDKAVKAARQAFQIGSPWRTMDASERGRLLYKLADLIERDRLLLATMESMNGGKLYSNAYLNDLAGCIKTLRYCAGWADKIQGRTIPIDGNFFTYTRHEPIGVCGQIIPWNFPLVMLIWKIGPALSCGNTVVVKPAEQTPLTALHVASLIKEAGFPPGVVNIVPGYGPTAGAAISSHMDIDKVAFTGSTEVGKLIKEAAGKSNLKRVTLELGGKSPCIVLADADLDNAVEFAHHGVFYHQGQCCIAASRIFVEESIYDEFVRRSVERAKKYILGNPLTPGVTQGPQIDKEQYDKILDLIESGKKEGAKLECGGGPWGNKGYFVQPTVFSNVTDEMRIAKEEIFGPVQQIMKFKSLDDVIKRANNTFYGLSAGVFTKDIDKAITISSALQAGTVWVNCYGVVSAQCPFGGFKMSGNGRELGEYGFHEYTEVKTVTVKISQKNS
The data set is described as follows: Recombinant enzyme activity assay. Format: biochemical. The following applies: dose titration, up to 10 μM.
Description: Purified enzyme was used for biochemical and biophysical assays.
(§2) For the recombinant enzyme activity assay, enzyme aliquots were thawed on ice for 4 h prior to analysis and the protocol was performed as described[8] with the following key changes: 1) Final concentrations of NAD+ (Gold Bio) were 200 μM and BSA were 1 mg/mL 2) Propanaldehyde was used as the substrate for ALDH1A1 and ALDH2. 3) Reaction velocity was monitored through diaphorase (clostridium) coupled reduction of resazurin (100 μM) monitored with ex/em of 560nm/590 nm in order to regenerate NAD+ and thus maintain constant cofactor concentration as well as to avoid high absorbance values of many screening compounds at the NADH absorbance. Assays were conducted at room temperature (controlled to 21-23C) and all buffers were maintained at pH 7.5. For all reactions, pre-incubation time was approximately 2 min while the reaction monitoring was performed over 10 min.

Data set [5] can be described thus: Kinetic solubility. Particulars: kinetic from dmso stock. Format: physicochemical. The source says:
(§1) Table 1 Physiochemical, biochemical, and metabolic profile of lead compounds MBE1 and MBE1.5 | column: MBE1; MBE1.5

Data set [6] relates to human ALDH1A3 in MCF7-ALDH1A3 cells. The experiment in a line: STRA6 qPCR retinoid inhibition assay in MCF7-ALDH1A3 cells. The following applies: for IC50: 24 h, read-out: cellular IC50 for ALDH1A3, STRA6 mRNA; for EC50: read-out: EC50 cellular, human ALDH1A3.
Data set [7] can be described thus: Hepatocyte stability (human). Type of data set: in vitro ADME. Particulars: hepatocytes, read-out: Hepatocyte T1/2 (human).
For data set [8], the target named is CYP2C9 (Homo sapiens, UniProt P11712). The data set is described as follows: CYP inhibition. Type of data set: in vitro ADME.
The target in data set [9] is CYP1A2 (Homo sapiens, UniProt P05177). The data set is described as follows: CYP inhibition. Type of data set: in vitro ADME.
For data set [10], the target named is CYP2C19 (Homo sapiens, UniProt P33261). The data set is described as follows: CYP inhibition. Format: in vitro ADME.
The nature of data set [11]: Cytotoxicity, 48 h tetrazolium proliferation assay.
Data set [12] in a line: IV/PO pharmacokinetics in fasted male CD-1 mice.
Data set [13] deals with T1, hERG. The experiment in a line: hERG patch-clamp. Type of data set: cell-based.
A short description of data set [14]: Microsomal stability (human). Type of data set: in vitro ADME. The following applies: microsomes, read-out: Microsomal T1/2 (human).
Data set [15] deals with endogenous ALDH1A3 in MDA-MB-468 cells. The experiment in a line: Quantification of atRA in cells. Format: cell-based, human. The following applies: 24 h, dose titration.
In data set [16] the test system is MDCK-MDR2. The experiment in a line: MDCK-MDR2 bidirectional permeability assay. Type of data set: in vitro ADME. Particulars: A to B.
Data set [17] deals with MDR2. The data set is described as follows: MDCK-MDR2 bidirectional permeability assay. Format: in vitro ADME. The following applies: dog; efflux ratio; read-out: MDCK-MDR2 (B to A/A to B).
Data set [18] in a line: Protein binding (human). Format: in vitro ADME. The following applies: plasma.
Description: as §1

The target of data set [19] is T3, ALDH1A3 (Homo sapiens, UniProt P47895).
T3 sequence (P47895 1-512): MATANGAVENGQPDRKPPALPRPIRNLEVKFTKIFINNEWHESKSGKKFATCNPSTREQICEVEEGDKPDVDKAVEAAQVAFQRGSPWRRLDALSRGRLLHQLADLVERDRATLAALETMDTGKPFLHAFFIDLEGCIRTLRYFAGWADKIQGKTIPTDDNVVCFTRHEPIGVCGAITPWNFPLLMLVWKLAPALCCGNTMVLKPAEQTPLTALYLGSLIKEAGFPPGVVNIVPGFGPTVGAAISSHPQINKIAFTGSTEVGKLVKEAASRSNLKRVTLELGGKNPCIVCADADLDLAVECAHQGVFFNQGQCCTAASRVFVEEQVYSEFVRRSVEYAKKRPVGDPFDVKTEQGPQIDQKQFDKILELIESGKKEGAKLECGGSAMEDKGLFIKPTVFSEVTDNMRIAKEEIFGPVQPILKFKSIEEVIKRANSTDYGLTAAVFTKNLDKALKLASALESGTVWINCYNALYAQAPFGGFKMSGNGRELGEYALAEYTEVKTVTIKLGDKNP
The experiment in a line: Recombinant enzyme activity assay. Format: biochemical. Also on record: made in house; host or cells: BL21-DE3 E. coli.
Description: We then tested each published ALDH inhibitor against the three human ALDH1A enzymes to assess inhibitory activity and isozyme selectivity.
Recombinant protein was isolated by inducing BL21-DE3 E. coli (Thermo Fisher) containing the respective plasmid for 20 h at room temperature, shaking, with 300 μM IPTG (Selleck Chem). […] The target protein was then purified using Ni NTA beads 6FF affinity chromatography. Lysis buffer consisted of 50 mM Na2HPO4, 300 mM NaCl, 1 mM β-ME, pH7.5. The column (2 mL) was washed with 50 mM Na2HPO4, 300 mM NaCl, 1 mM β-ME, 20 mM Imidazole, pH7.5. Elution was performed using 3 mL of 50 mM Na2HPO4, 300 mM NaCl, 1 mM β-ME, 250 mM Imidazole, pH7.5. Following affinity chromatography, the protein underwent further purification via Gel filtration chromatography using a Superdex200 column. […] Purified enzyme was used for biochemical and biophysical assays.
as §2

Where [20] appears, read: pH 4.5, aqueous buffer, read-out: Kinetic solubility pH 4.5.
Where [21] appears, read: pH 7.6, aqueous buffer, read-out: Kinetic solubility pH 7.6.
The mark [22] stands for this setting: 1 mg/kg IV and 10 mg/kg PO, fasted male CD1 mice.

Converted amounts (≈) assume the structure as drawn. Where two headings read alike, the source gives them in different places.

T1 sequence (Q12809 whole entry): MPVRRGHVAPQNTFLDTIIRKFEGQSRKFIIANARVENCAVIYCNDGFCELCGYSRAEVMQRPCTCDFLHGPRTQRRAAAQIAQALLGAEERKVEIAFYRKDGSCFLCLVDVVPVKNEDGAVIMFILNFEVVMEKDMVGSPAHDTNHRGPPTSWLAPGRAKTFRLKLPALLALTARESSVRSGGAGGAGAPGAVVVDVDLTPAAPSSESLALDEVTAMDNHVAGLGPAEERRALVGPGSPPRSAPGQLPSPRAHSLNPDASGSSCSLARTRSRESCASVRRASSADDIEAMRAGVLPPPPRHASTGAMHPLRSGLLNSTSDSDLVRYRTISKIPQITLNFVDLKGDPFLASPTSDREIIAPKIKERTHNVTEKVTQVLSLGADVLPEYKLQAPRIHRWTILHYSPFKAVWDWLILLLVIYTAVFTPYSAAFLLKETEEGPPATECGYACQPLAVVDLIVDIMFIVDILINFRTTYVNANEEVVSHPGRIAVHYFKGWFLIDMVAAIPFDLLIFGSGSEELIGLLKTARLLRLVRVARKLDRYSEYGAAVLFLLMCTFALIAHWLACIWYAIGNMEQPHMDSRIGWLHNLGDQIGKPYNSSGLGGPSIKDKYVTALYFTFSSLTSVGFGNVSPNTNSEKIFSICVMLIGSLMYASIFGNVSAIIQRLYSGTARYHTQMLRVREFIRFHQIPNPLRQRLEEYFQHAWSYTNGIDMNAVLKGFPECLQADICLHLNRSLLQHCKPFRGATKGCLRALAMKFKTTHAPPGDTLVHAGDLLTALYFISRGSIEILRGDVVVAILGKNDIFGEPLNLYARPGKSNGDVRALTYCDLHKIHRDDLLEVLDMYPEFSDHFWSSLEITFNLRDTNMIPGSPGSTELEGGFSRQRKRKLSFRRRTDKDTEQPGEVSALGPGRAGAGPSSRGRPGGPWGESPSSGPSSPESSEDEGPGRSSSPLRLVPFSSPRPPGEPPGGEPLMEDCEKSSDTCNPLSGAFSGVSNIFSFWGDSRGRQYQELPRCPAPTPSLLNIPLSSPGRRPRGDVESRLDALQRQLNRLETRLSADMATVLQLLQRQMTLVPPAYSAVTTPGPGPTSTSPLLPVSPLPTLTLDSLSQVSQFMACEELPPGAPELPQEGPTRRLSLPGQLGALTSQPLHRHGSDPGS
Chain of CYP2C19 (P33261 whole entry): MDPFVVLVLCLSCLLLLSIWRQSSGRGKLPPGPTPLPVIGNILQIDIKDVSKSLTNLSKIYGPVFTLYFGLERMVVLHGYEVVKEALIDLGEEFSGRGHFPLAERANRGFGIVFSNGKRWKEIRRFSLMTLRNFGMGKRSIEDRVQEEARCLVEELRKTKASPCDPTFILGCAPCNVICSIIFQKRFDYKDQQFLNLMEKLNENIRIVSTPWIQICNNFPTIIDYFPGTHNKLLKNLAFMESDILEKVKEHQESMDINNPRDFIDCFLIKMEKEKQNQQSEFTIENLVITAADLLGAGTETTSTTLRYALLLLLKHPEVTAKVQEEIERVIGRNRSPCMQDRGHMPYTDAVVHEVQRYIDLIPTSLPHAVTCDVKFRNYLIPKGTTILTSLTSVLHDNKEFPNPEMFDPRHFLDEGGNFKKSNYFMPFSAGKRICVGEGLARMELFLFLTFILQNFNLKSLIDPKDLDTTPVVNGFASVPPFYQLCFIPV
Chain of CYP2C9 (P11712 whole entry): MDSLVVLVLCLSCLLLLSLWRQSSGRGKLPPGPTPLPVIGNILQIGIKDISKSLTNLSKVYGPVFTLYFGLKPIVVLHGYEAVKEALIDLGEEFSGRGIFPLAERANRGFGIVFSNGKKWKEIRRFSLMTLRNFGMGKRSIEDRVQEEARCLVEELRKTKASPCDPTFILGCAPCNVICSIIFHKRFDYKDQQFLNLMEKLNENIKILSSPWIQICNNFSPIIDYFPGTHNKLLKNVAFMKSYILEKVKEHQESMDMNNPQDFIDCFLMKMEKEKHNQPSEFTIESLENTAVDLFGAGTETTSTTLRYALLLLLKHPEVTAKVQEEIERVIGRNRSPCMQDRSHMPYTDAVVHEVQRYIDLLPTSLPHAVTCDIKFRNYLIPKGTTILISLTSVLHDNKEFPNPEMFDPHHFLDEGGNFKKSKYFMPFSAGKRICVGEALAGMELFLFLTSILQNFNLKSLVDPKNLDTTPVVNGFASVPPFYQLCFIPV
Chain of CYP1A2 (P05177 whole entry): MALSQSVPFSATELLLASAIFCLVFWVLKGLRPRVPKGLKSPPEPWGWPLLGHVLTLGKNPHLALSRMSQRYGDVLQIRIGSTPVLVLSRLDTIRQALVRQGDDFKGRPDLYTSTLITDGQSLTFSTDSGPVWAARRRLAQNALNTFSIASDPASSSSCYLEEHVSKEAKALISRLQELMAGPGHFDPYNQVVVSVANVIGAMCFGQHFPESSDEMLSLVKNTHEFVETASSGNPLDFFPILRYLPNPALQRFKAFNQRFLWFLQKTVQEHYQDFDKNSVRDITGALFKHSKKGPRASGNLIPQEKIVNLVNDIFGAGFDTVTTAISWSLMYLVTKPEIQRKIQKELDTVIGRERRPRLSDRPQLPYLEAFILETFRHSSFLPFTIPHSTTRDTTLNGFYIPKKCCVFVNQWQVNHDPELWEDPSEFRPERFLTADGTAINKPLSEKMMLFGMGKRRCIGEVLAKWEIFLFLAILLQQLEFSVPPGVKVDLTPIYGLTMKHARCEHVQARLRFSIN
Chain of CYP3A4 (P08684 whole entry): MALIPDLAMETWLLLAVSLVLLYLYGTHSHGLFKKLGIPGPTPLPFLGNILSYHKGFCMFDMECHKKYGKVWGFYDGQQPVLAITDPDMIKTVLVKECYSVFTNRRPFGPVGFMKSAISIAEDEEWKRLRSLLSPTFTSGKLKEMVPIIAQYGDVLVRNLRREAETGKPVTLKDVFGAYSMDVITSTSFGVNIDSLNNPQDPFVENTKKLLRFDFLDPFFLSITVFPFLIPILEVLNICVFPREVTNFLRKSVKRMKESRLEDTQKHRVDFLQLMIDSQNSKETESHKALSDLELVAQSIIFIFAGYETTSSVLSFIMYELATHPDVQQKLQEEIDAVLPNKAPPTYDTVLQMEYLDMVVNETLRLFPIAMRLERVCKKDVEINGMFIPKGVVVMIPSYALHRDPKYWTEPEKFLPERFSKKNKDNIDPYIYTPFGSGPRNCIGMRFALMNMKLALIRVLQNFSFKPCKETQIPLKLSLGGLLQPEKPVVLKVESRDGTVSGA
Chain of CYP2D6 (P10635 whole entry): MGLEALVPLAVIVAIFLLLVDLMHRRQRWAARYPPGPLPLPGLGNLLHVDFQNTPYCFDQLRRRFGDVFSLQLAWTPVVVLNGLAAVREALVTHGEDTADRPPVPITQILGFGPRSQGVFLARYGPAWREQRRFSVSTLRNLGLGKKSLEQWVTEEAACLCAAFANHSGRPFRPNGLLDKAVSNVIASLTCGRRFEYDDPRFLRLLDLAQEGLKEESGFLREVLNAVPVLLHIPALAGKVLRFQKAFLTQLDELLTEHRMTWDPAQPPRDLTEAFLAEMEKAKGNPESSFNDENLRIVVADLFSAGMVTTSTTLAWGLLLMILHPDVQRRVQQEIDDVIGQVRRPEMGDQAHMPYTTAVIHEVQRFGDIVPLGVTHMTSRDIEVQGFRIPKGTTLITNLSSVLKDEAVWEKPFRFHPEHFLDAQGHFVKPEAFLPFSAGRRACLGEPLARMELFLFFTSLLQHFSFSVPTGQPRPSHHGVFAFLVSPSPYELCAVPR

Regarding `CCc1ccccc1C(=O)Nc1cc2c(cc1F)NC(=O)CC2` [MBE1.5, 2-ethyl-N-(7-fluoro-2-oxo-3,4-dihydro-1H-quinolin-6-yl)benzamide], the IC50 in data set [1] was greater than 30 µM; in data set [6], less than 0.001 µM; in data set [13], greater than 30 µM; in data set [19] (recombinant activity assay (Table 1), read-out: IC50 molecular, human ALDH1A3), 0.083 µM. The inhibition at 10 µM in data set [2] is 6.3%; in [3], 0%; in [8] it was 5.6%; in [9] it was 11.6%; in data set [10] it was 0%. For the same compound, the “inhibitory activity against ALDH1A1 (in words)” value in data set [4] is given as “no inhibition”. Moreover, the solubility (kinetic) in data set [5] (setting [20]) is 34.2 µM (≈ 10.7 µg/mL); in data set [5] (setting [21]), 33.3 µM (≈ 10.4 µg/mL). Moreover, in [6], the EC50 was 0.00053 µM. Besides, the half-life is greater than 3.61 h in data set [7] and greater than 2.42 h in data set [14]. This compound yielded a Cytotoxicity in data set [11] greater than 100 µM. For the same compound, in data set [12] (setting [22]), the “bioavailability compared with MBE1 (in words)” value is listed as “reduced bioavailability”. Also, the “half-life compared with MBE1 (in words)” value in [12] (setting [22]) is listed as “improved half-life”. In addition, the “reduction of atRA formation (in words)” value in data set [15] was “potently reduced atRA formation”. Further, in data set [16], the “MDCK-MDR2 permeability A to B” value is listed as “high”. In addition, the efflux ratio in [17] was 0.6. In [18], this compound gave a fraction unbound of 0.137. In addition, the competition mode entry in [19] (varying substrate and cofactor concentrations) is “noncompetitive inhibitor”.

With `CCc1cnccc1C(=O)Nc1cc2c(cc1F)NC(=O)CC2` [MBE1, 3-ethyl-N-(7-fluoro-2-oxo-3,4-dihydro-1H-quinolin-6-yl)pyridine-4-carboxamide], the IC50 in data set [1] is greater than 30 µM; in data set [6], 0.00367 µM; in data set [13], 26.6 µM; in data set [19] (dose titration, substrate competition assay, recombinant human ALDH1A3, 4-parameter equation, read-out: huALDH1A3 IC50), 0.148 µM. In addition, the inhibition at 10 µM in data set [2] stood at 42%; in data set [3], 61.3%; in data set [8], 13.9%; in data set [9] it was 8.8%; in [10], 15.8%. Also, the “inhibitory activity against ALDH1A1 (in words)” value in data set [4] is listed as “no inhibition”. For the same compound, the solubility (kinetic) in data set [5] (setting [20]) and in data set [5] (setting [21]) was greater than 200 µM each time. For the same compound, the EC50 in [6] stood at 0.00367 µM. The half-life is greater than 3.61 h in data set [7]; 1.37 h in [12] (male, CD-1, mouse, plasma, po, 10 mg/kg); greater than 2.42 h in [14]. For the same compound, the Cytotoxicity in data set [11] was greater than 100 µM. The same compound registered an Oral bioavailability in [12] (1 mg/kg i.v. and 10 mg/kg PO, fasted male CD-1 mice) of 88.3%. Besides, the “reduction of atRA formation (in words)” value in [15] was “potently reduced atRA formation”. Further, in data set [16], the “MDCK-MDR2 permeability A to B” value was “high”. Moreover, in [17], the efflux ratio was determined as 2.42. Moreover, the fraction unbound in [18] is 0.527. Moreover, the confirmatory screening result in data set [19] (hits of the 494-compound screen) was “true positives”.
